Experiment: method code SF-AS, from DOI: 10.1016/0223-5234(89)90112-8
Conditions: for logD: pH 7.4

SMILES	logD	logP
C#CCOC1(c2ccccc2)CN(C)CCO1 (stereo not drawn)	1.76	–
CC1N(C)CCOC1(O)c1ccccc1 (stereo not drawn)	1.31	–
CCOC1(c2ccccc2)OCCN(C)C1C (stereo not drawn)	1.74	–
CC1C(c2ccccc2)OC(O)(c2ccccc2)CN1C (stereo not drawn)	–	1.87
CCCCOC1(c2ccccc2)CN(C)CCO1 (stereo not drawn)	2.05	–
CN1CCOC(O)(c2ccccc2)C1 (stereo not drawn)	1.3	–
CC1CN(C)CC(O)(c2ccccc2)O1 (stereo not drawn)	1.48	–
CCCOC1(c2ccccc2)CN(C)CCO1 (stereo not drawn)	1.95	–
C=CCOC1(c2ccccc2)CN(C)CCO1 (stereo not drawn)	1.92	–
CCCOC1(c2ccccc2)CN(C)CC(C)O1 (stereo not drawn)	1.96	–
CN1CCOC(O)(c2ccc(Br)cc2)C1 (stereo not drawn)	–	1.57
CCCOC1(c2ccc(Br)cc2)CN(C)CCO1 (stereo not drawn)	–	2.19
CN1CCOC(OCCc2ccccc2)(c2ccccc2)C1 (stereo not drawn)	–	2.11
CCCCCCCCOC1(c2ccccc2)CN(C)CCO1 (stereo not drawn)	–	2.32
CN1CCOC(OCc2ccccc2)(c2ccccc2)C1 (stereo not drawn)	2.05	–
CN1CCOC(O)C1c1ccccc1 (stereo not drawn)	0.97	–
CN1CCOC(O)(c2cccc(C(F)(F)F)c2)C1 (stereo not drawn)	–	1.39
CC(C)COC1(c2ccccc2)CN(C)CCO1 (stereo not drawn)	1.98	–

— the SangsterLogP compilation
